Test results published in ChEMBL document CHEMBL4184317, “Discovery of Tetrahydroquinoxalines as Bromodomain and Extra-Terminal Domain (BET) Inhibitors with Selectivity for the Second Bromodomain” (J Med Chem, 2018).
Converted amounts (≈) assume the structure as drawn.

What was measured:
[1] = molecular target: Bromodomain-containing protein 4 (Homo sapiens, UniProt O60885, Y390A)
[2] = molecular target: Bromodomain-containing protein 4 (Homo sapiens, UniProt O60885, Y97A)
physchem = conditions: buffer
Description: Chromatographic hydrophobicity index, log D of the compound at pH 7.4 by HPLC method

PBMC = assay: cells; conditions: Homo sapiens, read-out: pIC50 (converted)
Description: Antiinflammatory activity in human PBMC assessed as inhibition of LPS-induced MCP1 release preincubated for 30 mins followed by LPS challenge measured after 24 hrs by immunoassay

[3] = molecular target: T1, Bromodomain-containing protein 2 (Homo sapiens, UniProt P25440); assay: Inhibition of human BRD2 BD1 after 30 mins by TR-FRET assay
T1 sequence (P25440 whole entry): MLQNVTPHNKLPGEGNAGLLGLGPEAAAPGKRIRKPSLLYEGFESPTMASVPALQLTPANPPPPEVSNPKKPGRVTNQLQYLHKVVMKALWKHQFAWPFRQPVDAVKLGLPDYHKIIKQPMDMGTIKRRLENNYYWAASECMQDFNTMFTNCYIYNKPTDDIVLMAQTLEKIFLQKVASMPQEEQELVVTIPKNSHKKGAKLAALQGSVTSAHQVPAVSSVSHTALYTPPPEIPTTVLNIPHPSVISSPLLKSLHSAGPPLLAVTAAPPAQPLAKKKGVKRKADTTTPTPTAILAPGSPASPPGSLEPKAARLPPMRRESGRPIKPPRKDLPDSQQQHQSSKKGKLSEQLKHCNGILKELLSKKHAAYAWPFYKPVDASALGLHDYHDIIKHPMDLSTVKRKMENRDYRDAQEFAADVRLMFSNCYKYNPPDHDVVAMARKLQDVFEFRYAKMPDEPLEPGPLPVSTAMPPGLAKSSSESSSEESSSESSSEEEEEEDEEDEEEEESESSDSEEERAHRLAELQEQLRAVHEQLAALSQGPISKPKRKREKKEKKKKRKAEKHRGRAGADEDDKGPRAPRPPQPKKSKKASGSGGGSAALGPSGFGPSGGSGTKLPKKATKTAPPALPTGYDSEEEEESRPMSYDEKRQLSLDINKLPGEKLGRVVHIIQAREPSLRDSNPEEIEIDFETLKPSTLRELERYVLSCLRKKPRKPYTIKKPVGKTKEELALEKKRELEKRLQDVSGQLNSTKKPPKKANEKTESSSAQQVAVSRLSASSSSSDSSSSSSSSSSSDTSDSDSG

[4] = molecular target: T1, Bromodomain-containing protein 2; assay: Inhibition of human BRD2 BD2 after 30 mins by TR-FRET assay
[5] = molecular target: T2, Bromodomain-containing protein 3 (Homo sapiens, UniProt Q15059); assay: Inhibition of BRD3 BD1 (unknown origin) after 30 mins by TR-FRET assay
T2 sequence (Q15059 whole entry): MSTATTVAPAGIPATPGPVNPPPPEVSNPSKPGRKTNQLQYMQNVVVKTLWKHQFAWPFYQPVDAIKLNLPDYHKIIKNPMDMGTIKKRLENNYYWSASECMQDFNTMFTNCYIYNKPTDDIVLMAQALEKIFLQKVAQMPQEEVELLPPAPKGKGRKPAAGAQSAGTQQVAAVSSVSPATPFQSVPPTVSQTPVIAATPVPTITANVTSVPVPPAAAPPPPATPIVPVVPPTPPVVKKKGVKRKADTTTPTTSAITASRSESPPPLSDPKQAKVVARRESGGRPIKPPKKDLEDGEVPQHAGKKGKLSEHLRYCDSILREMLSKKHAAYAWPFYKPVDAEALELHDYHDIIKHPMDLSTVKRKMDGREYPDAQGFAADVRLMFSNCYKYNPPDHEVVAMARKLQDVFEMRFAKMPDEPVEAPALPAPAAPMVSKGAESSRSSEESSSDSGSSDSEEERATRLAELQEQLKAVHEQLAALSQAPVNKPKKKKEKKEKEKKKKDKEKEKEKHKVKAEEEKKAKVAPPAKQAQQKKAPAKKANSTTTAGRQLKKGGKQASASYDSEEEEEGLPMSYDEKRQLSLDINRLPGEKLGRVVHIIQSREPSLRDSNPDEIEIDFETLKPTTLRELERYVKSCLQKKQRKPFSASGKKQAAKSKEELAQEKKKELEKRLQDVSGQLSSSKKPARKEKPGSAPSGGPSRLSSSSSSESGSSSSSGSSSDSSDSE

[6] = molecular target: T2, Bromodomain-containing protein 3; assay: Inhibition of BRD3 BD2 (unknown origin) after 30 mins by TR-FRET assay
[7] = molecular target: T3, Bromodomain testis-specific protein (Homo sapiens, UniProt Q58F21); assay: Inhibition of BRDT BD1 (unknown origin) after 30 mins by TR-FRET assay
[8] = molecular target: T3, Bromodomain testis-specific protein; assay: Inhibition of BRDT BD2 (unknown origin) after 30 mins by TR-FRET assay
Peregrin = molecular target: T4, Peregrin (Homo sapiens, UniProt P55201); assay: Displacement of Alexa 647 ligand from 6H-Flag-Tev-BRPF1 (622 to 738 residues) (unknown origin) expressed in Escherichia coli BL21 (DE3) cells after 30 mins by TR-FRET assay
T4 sequence (P55201 whole entry): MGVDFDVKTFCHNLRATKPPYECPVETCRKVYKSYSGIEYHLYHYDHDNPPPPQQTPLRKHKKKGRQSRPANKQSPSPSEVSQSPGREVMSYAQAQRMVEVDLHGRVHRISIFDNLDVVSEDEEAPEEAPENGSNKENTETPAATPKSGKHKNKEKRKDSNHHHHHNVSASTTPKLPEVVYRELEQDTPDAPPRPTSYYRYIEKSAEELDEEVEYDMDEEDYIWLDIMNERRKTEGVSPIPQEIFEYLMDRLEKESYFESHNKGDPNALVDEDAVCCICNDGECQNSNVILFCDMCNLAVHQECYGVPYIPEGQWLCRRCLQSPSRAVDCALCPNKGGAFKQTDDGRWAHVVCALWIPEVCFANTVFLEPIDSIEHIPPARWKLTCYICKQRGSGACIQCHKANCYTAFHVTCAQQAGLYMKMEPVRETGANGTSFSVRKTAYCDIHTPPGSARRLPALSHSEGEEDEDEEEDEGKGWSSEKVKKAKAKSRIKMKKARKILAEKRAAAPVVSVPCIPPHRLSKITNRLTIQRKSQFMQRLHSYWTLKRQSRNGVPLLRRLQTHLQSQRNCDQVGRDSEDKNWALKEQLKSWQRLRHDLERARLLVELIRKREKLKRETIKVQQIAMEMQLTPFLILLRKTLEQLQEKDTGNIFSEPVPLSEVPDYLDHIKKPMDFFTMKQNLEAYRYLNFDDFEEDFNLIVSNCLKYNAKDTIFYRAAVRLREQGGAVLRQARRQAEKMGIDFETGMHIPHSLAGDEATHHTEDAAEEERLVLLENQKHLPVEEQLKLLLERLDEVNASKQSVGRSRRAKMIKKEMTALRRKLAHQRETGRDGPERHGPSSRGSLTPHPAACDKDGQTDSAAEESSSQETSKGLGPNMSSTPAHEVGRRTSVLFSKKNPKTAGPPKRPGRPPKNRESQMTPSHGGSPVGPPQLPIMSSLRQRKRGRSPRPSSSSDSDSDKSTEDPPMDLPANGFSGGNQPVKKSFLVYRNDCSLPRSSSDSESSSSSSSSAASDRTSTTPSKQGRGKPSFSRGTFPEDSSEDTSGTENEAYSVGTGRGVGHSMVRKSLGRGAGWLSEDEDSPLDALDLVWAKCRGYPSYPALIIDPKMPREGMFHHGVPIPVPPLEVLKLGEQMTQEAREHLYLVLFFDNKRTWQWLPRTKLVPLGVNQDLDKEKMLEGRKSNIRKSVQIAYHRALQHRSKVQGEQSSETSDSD

[9] = Permeability of the compound by PAMPA; assay type: ADME; conditions: read-out: permeability
[10] = Solubility of the compound in pH 7.4 phosphate buffered saline by chemiluminescent nitrogen detection method; assay type: physicochemical
[11] = Solubility of the compound in FaSSIF at pH 6.5 after 16 hrs by HPLC method; assay type: physicochemical
Blood = assay: Antiinflammatory activity in human whole blood assessed as inhibition of LPS-induced MCP1 release preincubated for 30 mins followed by LPS challenge measured after 24 hrs by immunoassay; assay type: functional, tissue-based
Homo sapiens [12] = species on record: Homo sapiens; assay: Selectivity ratio of IC50 for human BRD2 BD1 to IC50 for human BRD2 BD2
Homo sapiens [13] = species on record: Homo sapiens; assay: Selectivity ratio of IC50 for BRD3 BD1 (unknown origin) to IC50 for BRD3 BD2 (unknown origin)
Homo sapiens [14] = species on record: Homo sapiens; assay: Selectivity ratio of IC50 for BRDT BD1 (unknown origin) to IC50 for BRDT BD2 (unknown origin)

Structure (SMILES) | IC50 [1] | IC50 [2] | chromatographic logD (physchem; pH 7.4, logD) | further results
CC(=O)N1c2ccccc2N(Cc2cc(C)ccc2C(=O)O)CC1C1CC1 (centres undefined) | > 50100 nM | 2510 nM | 2.4 | –
CCC1CN(Cc2ccccc2)c2cc(-c3ccc(C(N)=O)cc3)ccc2N1C(C)=O (centres undefined) | 398 nM | 50.1 nM | 4.4 | –
CC(=O)N1c2ccccc2N(Cc2ccccc2OCCO)CC1C1CC1 (centres undefined) | 25100 nM | 316 nM | 4.9 | –
CCC1CN(Cc2ccccc2)c2cc(-c3cccc(C(N)=O)c3)ccc2N1C(C)=O (centres undefined) | 501 nM | 63.1 nM | 4.7 | –
COc1ccccc1CN1CC(C2CC2)N(C(C)=O)c2ccccc21 (centres undefined) | 15800 nM | 398 nM | 6.9 | IC50 (PBMC): 2000 nM
CCC1CN(Cc2ccccc2)c2cc(C3=CCOCC3)ccc2N1C(C)=O (centres undefined) | 1580 nM | 158 nM | 6.5 | –
CC(=O)N1c2ccccc2N(Cc2cccc(C)c2)CC1C (centres undefined) | 20000 nM | 1000 nM | 6.5 | –
CCC1CN(Cc2cccc(C)c2)c2ccccc2N1C(C)=O (centres undefined) | 12600 nM | 794 nM | 7.1 | –
CC(=O)N1c2ccccc2N(Cc2ccccc2)CC1C (centres undefined) | 15800 nM | 501 nM | 5.9 | IC50 (PBMC): 1260 nM
CCC1CN(Cc2ccccc2)c2cc(-c3cnc(C(N)=O)nc3)ccc2N1C(C)=O (centres undefined) | 2000 nM | 100 nM | 3.6 | –
CC(=O)N1CCN(Cc2ccccc2)c2ccccc21 | 10000 nM | 2510 nM | 5.6 | –
CC(=O)N1c2ccccc2N(Cc2cccc(C)c2)CC1C1CC1 (centres undefined) | 25100 nM | 794 nM | 7.2 | –
CC(=O)N1c2ccccc2N(Cc2cccc(O)c2)CC1C1CC1 (centres undefined) | 15800 nM | 631 nM | 4.9 | –
CCC1CN(Cc2ccccc2)c2cc(-c3ccc(C(N)=O)nc3)ccc2N1C(C)=O (centres undefined) | 631 nM | 63.1 nM | 4.5 | –
CCC1CN(Cc2ccccc2)c2cc(Br)ccc2N1C(C)=O (centres undefined) | 2510 nM | 316 nM | 7.4 | –
CCC1CN(Cc2ccccc2)c2cc(-c3cnoc3)ccc2N1C(C)=O (centres undefined) | 1580 nM | 126 nM | 5.9 | –
CC(=O)N1c2ccccc2N(Cc2ccccc2CN)CC1C1CC1 (centres undefined) | 20000 nM | 631 nM | 2.7 | –
CC(=O)N1CC(C)N(Cc2ccccc2)c2ccccc21 (centres undefined) | 31600 nM | 1260 nM | – | –
CCC1CN(Cc2ccccc2)c2cc(-c3cncnc3)ccc2N1C(C)=O (centres undefined) | 3160 nM | 158 nM | 4.9 | –
CC(=O)N1CCN(Cc2cccc(C)c2)c2ccccc21 | 15800 nM | 501 nM | 5.9 | IC50 (PBMC): 3160 nM
CC(=O)N1c2ccccc2N(Cc2ccccc2CO)CC1C1CC1 (racemic) | 31600 nM | 501 nM | 4.9 | –
CCOC(=O)c1ccccc1CN1CC(C2CC2)N(C(C)=O)c2ccccc21 (centres undefined) | 12600 nM | 1000 nM | 7.2 | –
CCC1CN(Cc2ccccc2)c2cc(-c3cccnc3)ccc2N1C(C)=O (centres undefined) | 1580 nM | 100 nM | 5.6 | –

Structure (SMILES) | IC50 [1] | IC50 [2] | chromatographic logD (physchem; pH 7.4, logD) | further results
COc1cc(OC)c2c(=O)[nH]c(-c3cc(C)c(OCCO)c(C)c3)nc2c1 [APABETALONE] | – | – | 2.9 | –
CCC1CN(Cc2ccccc2)c2cc(-c3cnc(C)cn3)ccc2N1C(C)=O (centres undefined) | 2000 nM | 126 nM | 6.1 | –
CC(=O)N1c2ccccc2N(Cc2ccccc2CO)CC1C1CC1 (single isomer, unassigned; enantiomer 2) | > 50100 nM | > 50100 nM | – | –
CC(=O)N1c2ccccc2N(Cc2ccccc2N(C)C)CC1C1CC1 (centres undefined) | 20000 nM | 501 nM | 7.5 | IC50 (PBMC): 1580 nM
CC(=O)N1c2ccccc2N(Cc2ccccc2C(N)=O)CC1C1CC1 (centres undefined) | > 50100 nM | 1260 nM | 3.9 | –
CC(=O)N1c2ccccc2N(Cc2ccccc2CC(=O)O)CC1C1CC1 (centres undefined) | > 50100 nM | 1000 nM | 2.4 | IC50 (PBMC): 1260 nM
CC(=O)N1c2ccc(-c3ccc(C(=O)O)cc3)cc2[C@H](Nc2ccc(Cl)cc2)C[C@@H]1C | – | – | 3.9 | –
CCC1CN(Cc2ccccc2)c2cc(-c3ccc(=O)[nH]c3)ccc2N1C(C)=O (centres undefined) | 794 nM | 79.4 nM | 3.5 | –
CCC1CN(Cc2ccccc2)c2ccccc2N1C(C)=O (centres undefined) | 10000 nM | 631 nM | 6.5 | –
CC(=O)N1c2ccccc2N(Cc2ccccc2)CC1C1CC1 (centres undefined) | 20000 nM | 631 nM | 6.7 | IC50 (PBMC): 3160 nM
CC(=O)N1c2ccccc2N(Cc2cccc(CO)c2)CC1C1CC1 (centres undefined) | 25100 nM | 794 nM | 4.7 | IC50 (PBMC): 631 nM
CCC1CN(Cc2ccccc2)c2cc(-c3cn[nH]c3)ccc2N1C(C)=O (centres undefined) | 398 nM | 50.1 nM | 4.2 | –
CCC1CN(Cc2ccccc2)c2cc(-c3ccncc3OC)ccc2N1C(C)=O (centres undefined) | 5010 nM | 501 nM | 5.4 | –
CC(=O)N1c2ccc(-c3cnc(C(N)=O)nc3)cc2N(Cc2ccccc2CO)C[C@@H]1C1CC1 | 2000 nM | 50.1 nM | 3 | IC50 [3]: 1580 nM; IC50 [4]: 100 nM; IC50 [5]: 794 nM; IC50 [6]: 31.6 nM; IC50 [7]: 501 nM; IC50 [8]: 100 nM; IC50 (Peregrin): > 100000 nM; Papp [9]: 13.5 ×10⁻⁶ cm/s; solubility [10]: 87 µM (≈ 39.8 µg/mL); solubility at 16 h [11]: 18 µg/mL (≈ 39.3 µM); IC50 (Blood): 398 nM; Ratio IC50 (Homo sapiens [12]): 16; Ratio IC50 (Homo sapiens [13]): 25; Ratio IC50 (Homo sapiens [14]): 5; IC50 (PBMC): 63.1 nM
CC(=O)N1c2ccccc2N(Cc2ccc(Cl)cc2C(=O)O)CC1C1CC1 (centres undefined) | 39800 nM | 1260 nM | 2.9 | IC50 (PBMC): 12600 nM
CCC1CN(Cc2ccccc2)c2cc(C3=CCNCC3)ccc2N1C(C)=O (centres undefined) | 3160 nM | 158 nM | – | chromatographic logD (physchem; pH 7.4): 2.8
CC(=O)N1c2ccccc2N(Cc2ccccc2C(=O)O)CC1C1CC1 (centres undefined) | > 50100 nM | 794 nM | 2.2 | IC50 (PBMC): 2510 nM
CCC1CN(Cc2ccccc2)c2cc(-c3cnc(C#N)nc3)ccc2N1C(C)=O (centres undefined) | 251 nM | 100 nM | 6.3 | –
CC(=O)N1CCN(Cc2ccccc2C(=O)O)c2ccccc21 | > 50100 nM | 5010 nM | 1.2 | –
CC(=O)N1c2ccccc2N(Cc2ccccc2O)CC1C1CC1 (centres undefined) | 20000 nM | 501 nM | 5.2 | IC50 (PBMC): 1260 nM
CC(=O)N1c2ccccc2N(Cc2ccccc2C(=O)O)CC1C (centres undefined) | 39800 nM | 1580 nM | 1.5 | –
CC(=O)N1c2ccccc2N(Cc2ccccc2C#N)CC1C1CC1 (centres undefined) | 25100 nM | 2510 nM | 6 | –
